These results are taken from US20190330224A1, “ACC INHIBITORS AND USES THEREOF” (Gilead Apollo, LLC, priority 2015, published 2019).

In experiment [1] the target is Human ACC2 (Homo sapiens, UniProt O00763). As to the kind of experiment: In vitro ACC2 inhibition assay (ADP-Glo), human ACC2. The experiment is classed as biochemical. The conditions noted are these: 5 nM ACC2, 20 μM ATP, 20 μM acetyl-CoA. For orientation: ADP-Glo first removes unused ATP, then detects ADP through luciferase.
Experiment [2] deals with C. albicans ATCC 90028. As to the kind of experiment: Anti-Fungal Activity Assay (broth microtiter MIC), C. albicans. The conditions noted are these: for MIC: Candida albicans, ATCC90028, 48 h, read-out: MIC C. albicans ATCC 90028. The experiment is classed as cell-based, Candida albicans. The method, then: (§1) Compounds of the present invention were evaluated in an Anti-Fungal Activity Assay. An exemplary procedure for the assay, which measures the susceptibility of various Candida species to anti-fungal compounds, follows. Compounds to be tested (including fluconazole and amphotericin B) were dissolved in DMSO to obtain a solution having a concentration of 1 mg/mL. […] All species were grown from frozen stock by directly plating on to freshly prepared Sabouraud Dextrose agar (BD, Difco) and incubated overnight in ambient air at 35° C. for 24 h. A direct suspension was prepared in RPMI 1640+MOPS (Lonza, Biowhittaker) by taking individual colonies from the overnight cultures using sterile swabs soaked in sterile saline. The concentration of the suspension was determined using pre-determined standard curves. […] Broth microtiter MIC challenge plates were prepared following CLSI guidelines (M27-A3, Vol. 28 No. 14). The original CLSI guidelines focused on reading Candida MICs after 48 h of incubation. As reading after only 24 h offers a clear advantage of patient care, QC limits are being established for all drugs at 24 h. That being said there are no known interpretive breakpoints for amphotericin B at 24 h and the current fluconazole interpretive breakpoints are based on a 48 h reading. The MIC breakpoints for the test compounds were recorded at 48 h, and for the soraphen the 24 h time-point was added. All MIC determinations were achieved by visually comparing the growth found in the antibiotic challenged wells to that of the growth control.

Experiment [3] deals with C. krusei ATCC 6258. Kind of experiment: Anti-Fungal Activity Assay (broth microtiter MIC), C. krusei. Format: cell-based, Candida krusei. The conditions noted are these: for MIC: Pichia kudriavzevii, ATCC6258, 48 h, read-out: MIC C. krusei ATCC 6258. The method, then:
as §1

For experiment [4], the system named is C. parapsilosis ATCC 22019. Kind of experiment: Anti-Fungal Activity Assay (broth microtiter MIC), C. parapsilosis. The experiment is classed as cell-based, Candida parapsilosis. The conditions noted are these: Lodderomyces parapsilosis, ATCC22019, 48 h, read-out: MIC C. parapsilosis ATCC 22019. The method, then:
as §1

[5] abbreviates: 3 replicates, MIC recorded at 48 h.

Converted amounts (≈) assume the structure as drawn. Where two headings read alike, the source gives them in different places.

Human ACC2, sequence (O00763 whole entry): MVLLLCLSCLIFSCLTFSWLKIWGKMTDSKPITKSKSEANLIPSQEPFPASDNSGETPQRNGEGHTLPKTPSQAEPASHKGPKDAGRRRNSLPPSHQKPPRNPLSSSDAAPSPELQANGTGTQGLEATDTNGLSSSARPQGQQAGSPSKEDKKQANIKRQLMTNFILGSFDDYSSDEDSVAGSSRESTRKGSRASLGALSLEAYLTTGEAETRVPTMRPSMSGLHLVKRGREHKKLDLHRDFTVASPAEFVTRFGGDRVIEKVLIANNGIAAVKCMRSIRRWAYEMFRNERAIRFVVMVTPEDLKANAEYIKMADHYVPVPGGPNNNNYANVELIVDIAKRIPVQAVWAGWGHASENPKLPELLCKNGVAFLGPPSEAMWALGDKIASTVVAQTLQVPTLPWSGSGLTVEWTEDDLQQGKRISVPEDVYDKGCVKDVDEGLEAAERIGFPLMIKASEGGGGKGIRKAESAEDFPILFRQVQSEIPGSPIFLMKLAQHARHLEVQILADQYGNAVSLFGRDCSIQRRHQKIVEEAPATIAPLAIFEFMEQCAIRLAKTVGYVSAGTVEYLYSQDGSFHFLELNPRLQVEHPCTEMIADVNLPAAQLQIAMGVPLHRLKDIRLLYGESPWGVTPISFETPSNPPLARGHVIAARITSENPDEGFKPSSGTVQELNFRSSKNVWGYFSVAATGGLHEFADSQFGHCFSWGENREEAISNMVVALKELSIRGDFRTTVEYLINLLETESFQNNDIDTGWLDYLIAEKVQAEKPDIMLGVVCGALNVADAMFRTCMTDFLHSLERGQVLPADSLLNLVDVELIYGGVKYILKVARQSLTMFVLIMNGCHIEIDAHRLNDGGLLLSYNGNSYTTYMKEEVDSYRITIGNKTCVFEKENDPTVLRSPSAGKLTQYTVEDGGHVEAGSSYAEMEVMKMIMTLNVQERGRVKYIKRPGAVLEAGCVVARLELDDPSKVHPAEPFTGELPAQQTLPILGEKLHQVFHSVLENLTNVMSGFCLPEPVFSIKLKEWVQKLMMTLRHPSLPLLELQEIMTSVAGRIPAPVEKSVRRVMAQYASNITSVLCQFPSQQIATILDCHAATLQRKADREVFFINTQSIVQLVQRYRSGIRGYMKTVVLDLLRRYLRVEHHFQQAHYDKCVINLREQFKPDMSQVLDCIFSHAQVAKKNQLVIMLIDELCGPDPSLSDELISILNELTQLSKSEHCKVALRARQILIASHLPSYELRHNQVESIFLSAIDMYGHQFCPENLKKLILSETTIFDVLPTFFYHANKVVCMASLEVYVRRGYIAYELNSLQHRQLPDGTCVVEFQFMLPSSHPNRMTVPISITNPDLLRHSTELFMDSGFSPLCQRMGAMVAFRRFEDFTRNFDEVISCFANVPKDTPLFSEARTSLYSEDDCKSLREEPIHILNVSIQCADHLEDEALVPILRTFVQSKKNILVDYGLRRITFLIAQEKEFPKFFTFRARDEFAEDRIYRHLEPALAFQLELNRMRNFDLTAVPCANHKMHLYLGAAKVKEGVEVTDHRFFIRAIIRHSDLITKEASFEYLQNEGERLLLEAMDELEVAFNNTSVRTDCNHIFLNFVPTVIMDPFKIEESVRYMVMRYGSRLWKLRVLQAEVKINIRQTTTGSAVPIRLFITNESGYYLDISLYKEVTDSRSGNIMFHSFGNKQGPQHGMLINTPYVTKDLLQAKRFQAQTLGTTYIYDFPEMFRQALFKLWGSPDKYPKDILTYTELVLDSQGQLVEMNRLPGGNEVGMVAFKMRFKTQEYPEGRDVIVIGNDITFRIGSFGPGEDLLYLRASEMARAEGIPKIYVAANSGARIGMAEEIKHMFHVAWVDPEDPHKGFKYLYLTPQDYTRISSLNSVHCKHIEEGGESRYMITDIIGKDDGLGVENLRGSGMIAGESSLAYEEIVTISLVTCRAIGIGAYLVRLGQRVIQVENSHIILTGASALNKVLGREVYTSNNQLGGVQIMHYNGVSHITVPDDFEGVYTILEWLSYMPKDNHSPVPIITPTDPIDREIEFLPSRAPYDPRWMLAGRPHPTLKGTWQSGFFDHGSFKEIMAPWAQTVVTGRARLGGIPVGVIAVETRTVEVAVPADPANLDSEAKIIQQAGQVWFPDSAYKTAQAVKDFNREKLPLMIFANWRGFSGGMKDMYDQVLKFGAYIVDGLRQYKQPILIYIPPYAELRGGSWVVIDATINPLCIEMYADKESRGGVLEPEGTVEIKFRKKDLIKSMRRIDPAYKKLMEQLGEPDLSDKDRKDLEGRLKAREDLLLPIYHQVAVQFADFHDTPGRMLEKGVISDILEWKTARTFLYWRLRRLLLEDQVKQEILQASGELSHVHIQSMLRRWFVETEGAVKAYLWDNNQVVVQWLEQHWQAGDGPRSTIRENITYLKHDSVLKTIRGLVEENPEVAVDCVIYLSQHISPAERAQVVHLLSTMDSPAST

As a reminder, the IC50 is the concentration at which inhibition is half-maximal. The low end stands for inhibition by little substance, the high end for a need for much substance. A word on the MIC: it is the lowest concentration that inhibits growth of the organism. Turning to `COc1ccc(F)cc1[C@H](Cn1c(=O)n(C2CCCN(C(C)C)C2=O)c(=O)c2c(C)c(-n3nccn3)sc21)OC1CCOCC1` (stereo partly shown) [Compound I-24], in experiment [1], the IC50 lay within 10 to 100 nM. For the same molecule, the MIC in experiment [2] (setting [5]), in experiment [3] (setting [5]) and in experiment [4] (setting [5]) was 0.25 to 1 µg/mL (≈ 0.39 to 1.56 µM) in each case.

`COc1ccc(F)cc1[C@H](Cn1c(=O)n(C2CCN(C(C)C)C2=O)c(=O)c2c(C)c(-n3nccn3)sc21)OC1CCOCC1` (stereo in doubt) [Compound I-138, 1-((R)-2-(5-fluoro-2-methoxyphenyl)-2-((tetrahydro-2H-pyran-4-yl)oxy)ethyl)-3-((S)-1-isopropyl-2-oxopyrrolidin-3-yl)-5-methyl-6-(2H-1,2,3-triazol-2-yl)thieno[2,3-d]pyrimidine-2,4(1H,3H)-dione]: the IC50 in experiment [1] is 2 to 10 nM. In experiment [2] (setting [5]), the “MIC C. albicans ATCC 90028” value is listed as “A (provided an MIC of 0.25-1.0 μg/mL)”. In addition, the “MIC C. krusei ATCC 6258” value in experiment [3] (setting [5]) is “A (provided an MIC of 0.25-1.0 μg/mL)”. For the same molecule, the MIC in experiment [4] (setting [5]) lay in the range of 2.1 to 4 µg/mL (≈ 3.35 to 6.38 µM).

Take `COc1ccc(F)cc1[C@H](Cn1c(=O)n([C@H]2CCCNC2=O)c(=O)c2c(C)c(-c3ncco3)sc21)OCCO` [Compound I-62, 1-((R)-2-(5-fluoro-2-methoxyphenyl)-2-(2-hydroxy-ethoxy)ethyl)-5-methyl-6-(oxazol-2-yl)-3-((S)-2-oxopiperidin-3-yl)thieno[2,3-d]pyrimidine-2,4(1H,3H)-dione]: in experiment [1], the IC50 lay in the range of 10 to 100 nM. The MIC in experiment [2] (setting [5]), in experiment [3] (setting [5]) and in experiment [4] (setting [5]) was 2.1 to 4 µg/mL (≈ 3.76 to 7.16 µM) throughout.

As for `COc1ccc(F)cc1[C@H](Cn1c(=O)n([C@@H]2CCCNC2=O)c(=O)c2c(C)c(-n3nccn3)sc21)OC1CCOCC1` [Compound I-38, 1-((R)-2-(5-fluoro-2-methoxyphenyl)-2-((tetrahydro-2H-pyran-4-yl)oxy)ethyl)-5-methyl-3-((R)-2-oxopiperidin-3-yl)-6-(2H-1,2,3-triazol-2-yl)thieno[2,3-d]pyrimidine-2,4(1H,3H)-dione], in experiment [1], the IC50 was in the range of 10 to 100 nM. For the same molecule, the MIC in experiment [2] (setting [5]), in experiment [3] (setting [5]) and in experiment [4] (setting [5]) was 2.1 to 4 µg/mL (≈ 3.51 to 6.68 µM) throughout.

In turn, `COc1ccc(F)cc1[C@H](Cn1c(=O)n(C2CCN(C)C2=O)c(=O)c2c(C)c(-n3nccn3)sc21)OCCO` (stereo partly drawn) [Compound I-6, 1-((R)-2-(5-fluoro-2-methoxyphenyl)-2-(2-hydroxy-ethoxy)ethyl)-5-methyl-3-(-methyl-2-oxopyrrolidin-3-yl)-6-(2H-1,2,3-triazol-2-yl)thieno[2,3-d]pyrimidine-2,4(1H,3H)-dione] registered an IC50 in experiment [1] of 10 to 100 nM. Moreover, the MIC in experiment [2] (setting [5]), in experiment [3] (setting [5]) and in experiment [4] (setting [5]) was 2.1 to 4 µg/mL (≈ 3.76 to 7.16 µM) in each case.

For the molecule `CCN1CCCC(n2c(=O)c3c(C)c(-n4nccn4)sc3n(C[C@H](OCCO)c3cc(F)ccc3OC)c2=O)C1=O` (stereo partly drawn) [Compound I-19, 3-(1-ethyl-2-oxopiperidin-3-yl)-1-((R)-2-(5-fluoro-2-methoxyphenyl)-2-(2-hydroxyethoxy)ethyl)-5-methyl-6-(2H-1,2,3-triazol-2-yl)thieno[2,3-d]pyrimidine-2,4(1H,3H)-dione], the IC50 in experiment [1] lay within 10 to 100 nM. The MIC in experiment [2] (setting [5]), in experiment [3] (setting [5]) and in experiment [4] (setting [5]) was 2.1 to 4 µg/mL (≈ 3.58 to 6.82 µM) each time.

The molecule `CCN1CCC(n2c(=O)c3c(C)c(-n4nccn4)sc3n(C[C@H](OCCO)c3cc(F)ccc3OC)c2=O)C1=O` (stereo partly drawn) [Compound I-7, 3-(1-ethyl-2-oxopyrrolidin-3-yl)-1-((R)-2-(5-fluoro-2-methoxyphenyl)-2-(2-hydroxyethoxy)ethyl)-5-methyl-6-(2H-1,2,3-triazol-2-yl)thieno[2,3-d]pyrimidine-2,4(1H,3H)-dione] had an IC50 in experiment [1] of 10 to 100 nM. The MIC is 2.1 to 4 µg/mL (≈ 3.67 to 6.99 µM) in experiment [2] (setting [5]), 1.1 to 2 µg/mL (≈ 1.92 to 3.49 µM) in experiment [3] (setting [5]) and 2.1 to 4 µg/mL (≈ 3.67 to 6.99 µM) in experiment [4] (setting [5]).

`COCCO[C@@H](Cn1c(=O)n([C@@H]2CCN(C)C2=O)c(=O)c2c(C)c(-n3nccn3)sc21)c1cc(F)ccc1OCC#N` [Compound I-159, 2-(4-fluoro-2-((R)-1-(2-methoxyethoxy)-2-(5-methyl-3-((R)-1-methyl-2-oxopyrrolidin-3-yl)-2,4-dioxo-6-(2H2H-1,2,3-triazol-2-yl)-3,4-dihydrothieno[2,3-d]pyrimidin-1 (2H)-yl)ethyl)phenoxy)acetonitrile] came in with an IC50 in experiment [1] greater than 1000 nM. In addition, the MIC in experiment [2], in experiment [3] and in experiment [4] was 2.1 to 4 µg/mL (≈ 3.51 to 6.69 µM) in each case.

Regarding `COc1ccc(F)cc1[C@H](Cn1c(=O)n([C@@]2(C)CCC(=O)NC2)c(=O)c2c(C)c(-n3nccn3)sc21)OCCO` [Compound I-135, 1-((R)-2-(5-fluoro-2-methoxyphenyl)-2-(2-hydroxy-ethoxy)ethyl)-5-methyl-3-((S)-3-methyl-6-oxopiperidin-3-yl)-6-(2H-1,2,3-triazol-2-yl)thieno[2,3-d]pyrimidine-2,4(1H,3H)-dione], in experiment [1], the IC50 is 10 to 100 nM. The MIC in experiment [2] (setting [5]), in experiment [3] (setting [5]) and in experiment [4] (setting [5]) was 2.1 to 4 µg/mL (≈ 3.67 to 6.99 µM) each time.

As for `COCCO[C@@H](Cn1c(=O)n([C@H]2CCN(C)C2=O)c(=O)c2c(C)c(-n3nccn3)sc21)c1cc(F)ccc1OCC#N` [Compound I-160, 2-(4-fluoro-2-((R)-1-(2-methoxyethoxy)-2-(5-methyl-3-((S)-1-methyl-2-oxopyrrolidin-3-yl)-2,4-dioxo-6-(2H-1,2,3-triazol-2-yl)-3,4-dihydrothieno[2,3-d]pyrimidin-1(2H)-yl)ethyl)phenoxy)acetonitrile], the IC50 in experiment [1] was 10 to 100 nM. Also, the MIC in experiment [2], in experiment [3] and in experiment [4] was 2.1 to 4 µg/mL (≈ 3.51 to 6.69 µM) in each case.

As to `COc1ccc(F)cc1[C@H](Cn1c(=O)n([C@]2(C)CCC(=O)NC2)c(=O)c2c(C)c(-n3nccn3)sc21)OCCO` [Compound I-133, 1-((R)-2-(5-fluoro-2-methoxyphenyl)-2-(2-hydroxy-ethoxy)ethyl)-5-methyl-3-((R)-3-methyl-6-oxopiperidin-3-yl)-6-(2H-1,2,3-triazol-2-yl)thieno[2,3-d]pyrimidine-2,4(1H,3H)-dione], the IC50 in experiment [1] lay in the range of 10 to 100 nM. For the same molecule, the MIC in experiment [2] (setting [5]), in experiment [3] (setting [5]) and in experiment [4] (setting [5]) was 2.1 to 4 µg/mL (≈ 3.67 to 6.99 µM) throughout.

The molecule `COc1ccc(F)cc1[C@H](Cn1c(=O)n(C2CCCN(C(C)C)C2=O)c(=O)c2c(C)c(-n3nccn3)sc21)OCCO` (stereo partly drawn) [Compound I-20, 1-((R)-2-(5-fluoro-2-methoxyphenyl)-2-(2-hydroxy-ethoxy)ethyl)-3-(1-isopropyl-2-oxopiperidin-3-yl)-5-methyl-6-(2H-1,2,3-triazol-2-yl)thieno[2,3-d]pyrimidine-2,4(1H,3H)-dione] gave an IC50 in experiment [1] of 10 to 100 nM. Besides, the MIC in experiment [2] (setting [5]), in experiment [3] (setting [5]) and in experiment [4] (setting [5]) was 2.1 to 4 µg/mL (≈ 3.5 to 6.66 µM) throughout.

As to `CCN1CC[C@H](n2c(=O)c3c(C)c(-n4nccn4)sc3n(C[C@H](OC3CCOCC3)c3cc(F)ccc3OC)c2=O)C1=O` [Compound I-150, 3-((S)-1-ethyl-2-oxopyrrolidin-3-yl)-1-((R)-2-(5-fluoro-2-methoxyphenyl)-2-((tetrahydro-2H-pyran-4-yl)oxy)ethyl)-5-methyl-6-(2H-1,2,3-triazol-2-yl)thieno[2,3-d]pyrimidine-2,4(1H,3H)-dione], in experiment [1], the IC50 fell in the range of 2 to 10 nM. The figures for the MIC in experiment [2] (setting [5]), in experiment [3] (setting [5]) and in experiment [4] (setting [5]) were 0.25 to 1 µg/mL (≈ 0.408 to 1.63 µM), 0.075 to 0.24 µg/mL (≈ 0.122 to 0.392 µM) and 0.25 to 1 µg/mL (≈ 0.408 to 1.63 µM), respectively.
